Reference: patent US20090087894A1, “Method for improving enzymatic activity of glycosyltransferases” (Japan Tobacco Inc., priority 2004, published 2009)

Key:
[1] = biological target: T1, deletion mutant of recombinant α2,6-sialyltransferase; N2C1, derived from P. damselae JT0160 (Photobacterium damselae, UniProt O66375); experiment: Effect of NaCl on enzyme activity of deletion mutant of recombinant α2,6-sialyltransferase N2C1; assay type: biochemical; conditions: 0.2 to 1.5 M NaCl in the reaction solution; FIG. 4
T1 construct: lacks the N-terminal (Met) 107 amino acid residues and the C-terminal 176 amino acid residues; made in house; host or cells: E. coli, crude enzyme solution
T1 sequence (O66375 entry or part of it, stated change not applied): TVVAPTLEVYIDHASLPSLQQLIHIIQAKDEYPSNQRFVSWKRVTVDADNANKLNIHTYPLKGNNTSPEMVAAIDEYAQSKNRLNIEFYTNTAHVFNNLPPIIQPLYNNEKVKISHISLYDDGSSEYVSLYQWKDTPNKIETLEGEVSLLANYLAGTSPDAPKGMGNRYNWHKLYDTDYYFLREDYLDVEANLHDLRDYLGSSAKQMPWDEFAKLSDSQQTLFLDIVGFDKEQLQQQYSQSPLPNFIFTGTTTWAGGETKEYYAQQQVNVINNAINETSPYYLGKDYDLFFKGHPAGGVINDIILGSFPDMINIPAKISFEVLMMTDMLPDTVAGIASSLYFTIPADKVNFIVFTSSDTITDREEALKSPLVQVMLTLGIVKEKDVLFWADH
Method: The transformed E. coli cells were cultured at 30° C. at 180 rpm for 12 hours in L Broth (containing ampicillin at a final concentration of 0.2 mg/ml and IPTG at a final concentration of 1 mM), followed by centrifugation to collect the cells. The collected cells were suspended in 20 mM sodium cacodyrate buffer (pH 5.0) and then ultrasonicated at 4° C. to homogenize the cells, thereby preparing a crude enzyme solution containing a sialyltransferase protein from the N2C1 gene. […] This N2C1 gene-derived sialyltransferase protein was used in the following experiment.
The enzyme reaction was accomplished in 20 μl reaction solution containing CMP-^14C-NeuAc as a glycosyl donor substrate (50.066 nmol, 25000 cpm), lactose as a glycosyl acceptor substrate (1 mmol), N2C1 (0.5 to 1.5 mU) and NaCl at a concentration varying from 0 to 2.5 M (30° C., 1 minute). After completion of the enzyme reaction, the radioactivity of NeuAc which was transferred to lactose under the respective conditions was measured to calculate the enzyme activity, thereby studying the effect of NaCl on the enzyme activity in each test range.
More specifically, after completion of the reaction, each reaction solution was supplemented with 1.98 ml of 5 mM phosphate buffer (pH 6.8) and applied to a AG1−×2Resin (PO43-form, 0.2×2 cm) column. […] The eluate (0 to 2 ml) from this column was measured for its radioactivity.

[2] = tested on: glycosyltransferase (crude α2,6-sialyltransferase) of P. damsela ATCC33539; experiment: Effect of NaCl on activity of crude α2,6-sialyltransferase from P. damselae ATCC33539; assay type: biochemical, Photobacterium damselae
Method: (§1) ATCC33539T and ATCC35083, which were strains belonging to Photobacterium damselae but different from JT0160, were cultured and the resulting cells were used to prepare crude enzyme solutions according to the procedure for preparing a crude enzyme solution of P. damselae JT0160 (Purification and characterization of a Marine bacterial β-Galactoside α2,6-Sialyltransferase from Photobacterium damselae JT0160 J. Biochem. 120, 104-110, 1996). These crude enzymes were used in the following experiment.
(§2) The enzyme reaction was accomplished in 20 μl reaction solution containing CMP-^14C-NeuAc as a glycosyl donor substrate (50.066 nmol, 25000 cpm), lactose as a glycosyl acceptor substrate (1 mmol), glycosyltransferase derived from various strains (1 mU or less) and NaCl at a concentration of 0.5 M (30° C., 1 minute). After completion of the enzymatic reaction, the radioactivity of NeuAc which was transferred to lactose under the respective conditions was measured to calculate the enzyme activity, thereby studying the effect of NaCl on the enzyme activity in each test range. More specifically, after completion of the reaction, each reaction solution was supplemented with 1.98 ml of 5 mM phosphate buffer (pH 6.8) and applied to a AG1−×2Resin (PO4^3− form, 0.2×2 cm) column. […] The eluate (0 to 2 ml) from this column was measured for its radioactivity.

[3] = tested on: glycosyltransferase (crude α2,6-sialyltransferase) of P. damsela ATCC35083; experiment: Effect of NaCl on activity of crude α2,6-sialyltransferase from P. damselae ATCC35083; assay type: biochemical, Photobacterium damselae
Method: as §1, §2

[4] = Confirmation of α2,3-sialyltransferase activity with pyridylaminated lactose as glycosyl acceptor, HPLC; assay type: biochemical; conditions: pyridylaminated lactose and CMP-sialic acid, 25° C.
Text: Determination of the binding mode of sialic acid was accomplished by using a pyridylaminated sugar chain. The resulting enzyme was used to carry out an enzymatic reaction in the presence of a pyridylaminated sugar chain as a glycosyl acceptor substrate. The pyridylaminated sugar chain used for analysis was pyridylaminated lactose (Galβ1, 4Glc-PA, PA-Sugar Chain 026, Takara Bio Inc., Japan). As a standard, pyridylaminated α2,3sialyllactose (NeuAcα2,3Galβ1, 4Glc-PA, PA-Sugar Chain 029, Takara Bio Inc., Japan) was used. The glycosyl acceptor substrate, CMP-NeuAc and the enzyme were dissolved at 2.0 mM, 5.7 μM and about 20 mU/ml, respectively, in 25 μl of 20 mM cacodylate buffer (pH 6.0) or Bis-Tris buffer (pH 6.0), and then reacted at 25° C. for 3 to 18 hours. After completion of the reaction, the reaction solution was treated at 100° C. for 2 minutes to deactivate the enzyme, followed by HPLC to analyze the reaction product.
The HPLC system used was, Shimadzu LC10A (Shimadzu Corporation, Japan) and the analytical column used was Takara PALPAK Type R (Takara Bio Inc., Japan). The column which had been equilibrated with 100 mM acetate-triethylamine (pH 5.0) containing 0.15% N-butanol was injected with the reaction solution diluted with Eluent A (100 mM acetate-triethylamine, pH 5.0). For elution of the pyridylaminated sugar chain, Eluent A (100 mM acetate-triethylamine, pH 5.0) and Eluent B (100 mM acetate-triethylamine containing 0.5% n-butanol, pH 5.0) were used to successively elute the pyridylaminated sugar chain with a linear gradient of 30% to 100% Eluent B (0 to 35 minutes) and then 100% Eluent B (35 to 50 minutes). The analysis was performed under the following conditions: flow rate: 1 ml/min, column temperature: 40° C., detection: fluorescence (Ex: 320 nm, Em: 400 nm).
As in the case of Reference Example 1-1, pyridylaminated lactose was used as a glycosyl acceptor to carry out the enzyme reaction. After completion of the reaction, the reaction solution was thermally treated at 95° C. for 5 minutes to deactivate the enzyme, followed by HPLC analysis. It should be noted that the enzyme reaction was accomplished at 25° C. for 6 hours using pyridylaminated lactose and CMP-sialic acid dissolved at 2.0 μM and 5.7 μM, respectively, in 25 μl of 20 mM cacodylate buffer (pH 6.0) (Reaction 1). On the other hand, a control experiment (Reaction 2) was carried out using a reaction solution free from CMP-sialic acid. Further, to clarify the retention time of standards, the crude enzyme solution was deactivated by thermal treatment (95° C., 5 minutes) and tested in the presence of pyridylaminated lactose and pyridylaminated α2,3-sialyllactose.

## [Cl-].[Na+] [NaCl]
[1]
  enzyme activity compared to the absence of NaCl: activated
[2]; +NaCl, 0.5 M, 30° C., 1 minute
  Radioactivity: 11071
[2]; NaCl 0.5 M
  +NaCl/−NaCl: 1.2
[3]; +NaCl, 0.5 M, 30° C., 1 minute
  Radioactivity: 9733
[3]; NaCl 0.5 M
  +NaCl/−NaCl: 1.3

B1: 467-N2C0: recombinant JT-ISH-467 α2,3-sialyltransferase lacking the signal peptide region, expressed in E. coli (protein)
chain: MFVFCKKIFFLIFISLMILGGCNSDSKHNNSDGNITKNKTIEVYVDRATLPTIQQMTQIINENSNNKKLISWSRYPINDETLLESINGSFFKNRPELIKSLDSMILTNEIKKVIINGNTLWAVDVVNIIKSIEALGKKTEIELNFYDDGSAEYVRLYDFSRLPESEQEYKISLSKDNIQSSINGTQPFDNSIENIYGFSQLYPTTYHMLRADIFETNLPLTSLKRVISNNIKQMKWDYFTTFNSQQKNKFYNFTGFNPEKIKEQYKASPHENFIFIGTNSGTATAEQQIDILTEAKKPDSPIITNSIQGLDLFFKGHPSATYNQQIIDAHNMIEIYNKIPFEALIMTDALPDAVGGMGSSVFFSLPNTVENKFIFYKSDTDIENNALIQVMIELNIVNRNDVKLISDLQ
modifications: OTHER INFORMATION: /gene=“467-23ST” /product=“beta-galactoside-alpha2,3-sialyltransferase”
notes: recombinant JT-ISH-467 α2,3-sialyltransferase lacking the signal peptide region, expressed in E. coli
[4]
  α2,3-sialyltransferase activity (formation of pyridylaminated α2,3-sialyllactose): had α2,3-sialyltransferase activity

B2: 467-N0C0: recombinant full-length α2,3-sialyltransferase of Photobacterium phosphoreum JT-ISH-467 expressed in E. coli (protein)
chain: MFVFCKKIFFLIFISLMILGGCNSDSKHNNSDGNITKNKTIEVYVDRATLPTIQQMTQIINENSNNKKLISWSRYPINDETLLESINGSFFKNRPELIKSLDSMILTNEIKKVIINGNTLWAVDVVNIIKSIEALGKKTEIELNFYDDGSAEYVRLYDFSRLPESEQEYKISLSKDNIQSSINGTQPFDNSIENIYGFSQLYPTTYHMLRADIFETNLPLTSLKRVISNNIKQMKWDYFTTFNSQQKNKFYNFTGFNPEKIKEQYKASPHENFIFIGTNSGTATAEQQIDILTEAKKPDSPIITNSIQGLDLFFKGHPSATYNQQIIDAHNMIEIYNKIPFEALIMTDALPDAVGGMGSSVFFSLPNTVENKFIFYKSDTDIENNALIQVMIELNIVNRNDVKLISDLQ
modifications: OTHER INFORMATION: /gene=“467-23ST” /product=“beta-galactoside-alpha2,3-sialyltransferase”
notes: recombinant full-length α2,3-sialyltransferase of Photobacterium phosphoreum JT-ISH-467 expressed in E. coli
[4]
  α2,3-sialyltransferase activity (formation of pyridylaminated α2,3-sialyllactose): found to have α2,3-sialyltransferase activity

B3: 224-N1C0: recombinant JT-ISH-224 α2,3-sialyltransferase lacking the signal peptide region, expressed in E. coli (protein)
chain: MLVFCKKMFFSVFISLMILGGCNSDSNHNNSDGNITKNKTIEVYVDRATLPTIQQMTQIINENSNNKKLISWSRYPINDEELLESINGSFFKNNSELIKSLDSMILTNDIKKVIINGNTLWAADVVNIIKSIEAFGKKTEIELNFYDDGSAEYVRLYDFSKLPESEQEYKISLSKDNILSSINGTQPFENVVENIYGFSQLYPTTYHMLRADIFETNLPLRSLKGVLSNNIKQMKWDYFKTFNSQQKDKFYNFTGFNPDEIMEQYKASPNKNFIFVGTNSGTATAEQQIDILTEAKNPNSPIITKSIQGFDLFFKGHPSATYNKQIIDAHNMIEIYNKIPFEALIMTDALPDAVGGMGSSVFFSLPNTVENKFIFYKSDTDIENNALIQVMIELNIVNRNDVKLISDLQ
modifications: OTHER INFORMATION: /gene=“224-23ST” /product=“beta-galactoside-alpha-2,3-sialyltransferase”
notes: recombinant JT-ISH-224 α2,3-sialyltransferase lacking the signal peptide region, expressed in E. coli
[4]
  α2,3-sialyltransferase activity (formation of pyridylaminated α2,3-sialyllactose): a peak of pyridylaminated α2,3-sialyllactose was detected

B4: FAJ-N0C0: recombinant full-length α2,3-sialyltransferase of Vibrio sp. JT-FAJ-16 expressed in E. coli (protein)
chain: MKNIITKRMLIILSSLFTIIGCNNDNSTTTNNNAIEIYVDRATLPTIQQMTKIVSQKTSNKKLISWSRYPITDKSLLKKINAEFFKEQFELTESLKNIILSENIDNLIIHGNTLWSIDVVDIIKEVNLLGKNIPIELHFYDDGSAEYVRIYEFSKLPESEQKYKTSLSKNNIKFSIDGTDSFKNTIENIYGFSQLYPTTYHMLRADIFDTTLKINPLRELLSNNIKQMKWDYFKDFNYKQKDIFYSLTNFNPKEIQEDFNKNSNKNFIFIGSNSATATAEEQINIISEAKKENSSIITNSISDYDLFFKGHPSATFNEQIINAHDMIEINNKIPFEALIMTGILPDAVGGMGSSVFFSIPKEVKNKFVFYKSGTDIENNSLIQVMLKLNLINRDNIKLISDI
modifications: OTHER INFORMATION: /gene=“FAJ16-23ST” /product=“beta-galactoside-alpha2,3-sialyltransferase”
notes: recombinant full-length α2,3-sialyltransferase of Vibrio sp; JT-FAJ-16 expressed in E. coli
[4]
  α2,3-sialyltransferase activity (formation of pyridylaminated α2,3-sialyllactose): a peak of pyridylaminated α2,3-sialyllactose was detected
